Results published in patent US20240190971A1, “USE OF an anti-P-selectin antibody” (NOVARTIS AG, priority 2018, published 2024).

Assays:
Gata1^low mice = details: mouse, in vivo
Procedure: Given the well described effects of inhibition of the TGF-β receptor 1 kinase on myelofibrosis in mouse models, the effects of the P-selectin inhibitor with those obtained with SB431542 are compared. In fact, contrary to inhibition of TGF-β signaling, inhibition of P-selectin has limited side effects and is therefore preferable to TGF-β inhibitors. […] Gata1^low mice are treated at 5-6 months of age (i.e. in the pre-MF stage) and analyzed at 10-12 months, an age when they are expected to have MF.
Gata1^low mice (8 mice per group) are treated with SB431542 according to the following scheme: • Group 1: Vehicle treated (2% v/v DMSO in H2O) (negative control) • Group 2: Mice receive SB431542 (60 μg/kg/day, cat no S4317-5GM, Sigma-Aldrich, St Louis, MO), as described (Spangrude G J et al, Stem Cells 2016; 34:67-82; Zingariello M et al, Blood 2013; […]
5-6 months old mice are treated daily for 5 days (Monday to Friday), then rested for 2 days and then treated again for 5 days. These treatments continue until the mice will reach 10-12 months of age. At that point they are sacrificed and analyzed for signs of progression to MF as described by Spangrude G J et al, Stem Cells 2016; 34:67-82; Zingariello M et al, Blood 2013; 121:3345-63. […]

[1] = tested on: broad panel of 26 kinases; details: tested at 200 nM; cited from earlier work
JAK3 = JAK3 (Homo sapiens, UniProt P52333); details: at clinically relevant concentrations; cited from earlier work
Chain of JAK3 (P52333 whole entry): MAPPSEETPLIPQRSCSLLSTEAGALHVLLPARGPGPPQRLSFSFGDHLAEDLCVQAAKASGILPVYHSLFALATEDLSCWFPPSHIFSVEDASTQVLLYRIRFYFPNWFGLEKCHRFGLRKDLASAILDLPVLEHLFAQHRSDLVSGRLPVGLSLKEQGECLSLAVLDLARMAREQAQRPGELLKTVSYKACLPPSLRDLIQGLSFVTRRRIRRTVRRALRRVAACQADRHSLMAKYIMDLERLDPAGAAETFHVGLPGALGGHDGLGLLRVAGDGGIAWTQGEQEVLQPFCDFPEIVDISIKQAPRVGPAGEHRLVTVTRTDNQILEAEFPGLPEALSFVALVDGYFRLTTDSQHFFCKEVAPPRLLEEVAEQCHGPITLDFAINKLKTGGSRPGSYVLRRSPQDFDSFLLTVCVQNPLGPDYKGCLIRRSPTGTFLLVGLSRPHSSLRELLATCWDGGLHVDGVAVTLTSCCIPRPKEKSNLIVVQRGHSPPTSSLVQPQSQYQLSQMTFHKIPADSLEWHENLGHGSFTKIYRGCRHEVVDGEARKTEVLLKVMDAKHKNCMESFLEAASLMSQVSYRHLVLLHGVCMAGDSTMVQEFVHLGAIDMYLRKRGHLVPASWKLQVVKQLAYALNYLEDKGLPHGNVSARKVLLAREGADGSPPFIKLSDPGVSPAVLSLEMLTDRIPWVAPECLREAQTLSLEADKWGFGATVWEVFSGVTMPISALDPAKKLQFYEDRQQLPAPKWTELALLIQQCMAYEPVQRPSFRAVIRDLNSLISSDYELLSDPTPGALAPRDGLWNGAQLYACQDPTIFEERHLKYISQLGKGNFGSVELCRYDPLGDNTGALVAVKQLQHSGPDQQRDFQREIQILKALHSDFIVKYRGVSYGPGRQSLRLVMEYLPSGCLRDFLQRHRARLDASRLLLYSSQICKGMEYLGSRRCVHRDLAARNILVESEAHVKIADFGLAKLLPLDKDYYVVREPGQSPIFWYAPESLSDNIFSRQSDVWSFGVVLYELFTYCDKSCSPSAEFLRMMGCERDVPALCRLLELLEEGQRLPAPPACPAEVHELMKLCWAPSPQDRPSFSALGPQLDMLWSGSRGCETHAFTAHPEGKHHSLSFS

P-selectin = molecular target: T1, P-selectin (Homo sapiens, UniProt P16109); details: cited from earlier work
T1 sequence (P16109 42-830): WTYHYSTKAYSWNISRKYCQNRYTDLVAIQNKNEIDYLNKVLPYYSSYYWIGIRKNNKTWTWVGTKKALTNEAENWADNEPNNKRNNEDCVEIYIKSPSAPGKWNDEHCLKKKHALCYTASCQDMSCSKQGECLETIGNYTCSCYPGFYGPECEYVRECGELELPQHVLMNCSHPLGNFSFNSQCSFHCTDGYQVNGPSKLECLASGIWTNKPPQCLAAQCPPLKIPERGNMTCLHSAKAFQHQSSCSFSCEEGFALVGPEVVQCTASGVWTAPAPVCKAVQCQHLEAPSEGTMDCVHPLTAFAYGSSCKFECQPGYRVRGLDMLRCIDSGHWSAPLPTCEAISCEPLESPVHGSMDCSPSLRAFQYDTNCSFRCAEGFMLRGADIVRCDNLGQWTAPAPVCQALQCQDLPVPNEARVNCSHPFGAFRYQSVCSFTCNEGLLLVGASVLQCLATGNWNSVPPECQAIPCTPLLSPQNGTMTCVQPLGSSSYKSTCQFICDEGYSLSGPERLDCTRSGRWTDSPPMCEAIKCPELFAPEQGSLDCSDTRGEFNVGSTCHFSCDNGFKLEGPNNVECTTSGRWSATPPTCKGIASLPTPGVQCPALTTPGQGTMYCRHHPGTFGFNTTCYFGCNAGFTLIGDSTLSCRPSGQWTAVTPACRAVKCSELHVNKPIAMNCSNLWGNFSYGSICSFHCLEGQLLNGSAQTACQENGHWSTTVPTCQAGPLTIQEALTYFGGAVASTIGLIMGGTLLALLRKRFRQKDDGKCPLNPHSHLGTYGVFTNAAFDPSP

NC(=O)c1ccc(-c2nc(-c3ccc4c(c3)OCO4)c(-c3ccccn3)[nH]2)cc1 [SB431542]
toxicity profile (Gata1^low mice): poor toxicity profile (increased osteosclerosis)

N#CC[C@H](C1CCCC1)n1cc(-c2ncnc3[nH]ccc23)cn1 [ruxolitinib, (R)-3-(4-(7H-pyrrolo[2,3-d]pyrimidin-4-yl)-1H-pyrazol-1-yl)-3-cyclopentylpropanenitrile]
inhibition [1]: < 30% | inhibition of JAK3 (JAK3): does not inhibit

B1: crizanlizumab: humanized monoclonal antibody targeted towards P-selectin, blocks its interaction with PSGL-1 (antibody)
heavy: QVQLVQSGAEVKKPGASVKVSCKVSGYTFTSYDINWVRQAPGKGLEWMGWIYPGDGSIKYNEKFKGRVTMTVDKSTDTAYMELSSLRSEDTAVYYCARRGEYGNYEGAMDYWGQGTLVTVSSASTKGPSVFPLAPCSRSTSESTAALGCLVKDYFPEPVTVSWNSGALTSGVHTFPAVLQSSGLYSLSSVVTVTSSNFGTQTYTCNVDHKPSNTKVDKTVERKCCVECPPCPAPPVAGPSVFLFPPKPKDTLMISRTPEVTCVVVDVSHEDPEVQFNWYVDGMEVHNAKTKPREEQFNSTFRVVSVLTVVHQDWLNGKEYKCAVSNKGLPAPIEKTISKTKGQPREPQVYTLPPSREEMTKNQVSLTCLVKGFYPSDIAVEWESNGQPENNYKTTPPMLDSDGSFFLYSKLTVDKSRWQQGNVFSCSVMHEALHNHYTQKSLSLSPGK
light: DIQMTQSPSSLSASVGDRVTITCKASQSVDYDGHSYMNWYQQKPGKAPKLLIYAASNLESGVPSRFSGSGSGTDFTLTISSLQPEDFATYYCQQSDENPLTFGGGTKVEIKRTVAAPSVFIFPPSDEQLKSGTASVVCLLNNFYPREAKVQWKVDNALQSGNSQESVTEQDSKDSTYSLSSTLTLSKADYEKHKVYACEVTHQGLSSPVTKSFNRGEC
blocking of P-selectin interaction with PSGL-1 (P-selectin): blocks its interaction with P-selectin glycoprotein ligand 1 (PSGL-1) | dissociation of already formed P-selectin/PSGL-1 complexes (P-selectin): dissociates P-selectin/PSLG-1 complexes that have already formed
